Source: patent EP1375483A1, “6-CHLORO-3-PYRIDYLMETHYLPROPYLAMINE DERIVATIVES, PREPARATION PROCESS THEREOF AND BACTERICIDES” (KUREHA KAGAKU KOGYO KABUSHIKI KAISHA, priority 2001, dated 2001)
Read-outs that look alike come from different tables or passages of the source.

Assays:
[1] = system: cucumber powdery mildew; experiment: Test of control effect on cucumber powdery mildew (Test Example 2); type: in vivo; settings: wettable powder 100 mg/l, 100 liters/10 a, sprinkled on cucumbers (Sagamihanpakufushinari) before inoculation, examined 9th to 14th day after inoculation; for pest or weed control at 100 µg/mL: Cucumis sativus
Experimental: The wettable powders formulated by using each of the compounds I-1 to 27 according to the present invention and the comparative compounds (a) to (d), (m-1) and (m-3) were each diluted and suspended with water to a predetermined concentration (100 mg/l), the suspension was sprinkled over the first to the second leaf period cucumbers (variety: "[…]") cultivated by using a square plastic pot (size: 6. 4 cm x 6. 4 cm) in a rate of 100 liters/10 a (ares). After the sprinkled leaves were air-dried, the spores were inoculated over the leaves by sprinkling the same with a brush from an infected leaf, a disease was contracted in a glass house (temperature: 20 to 24°C, relative humidity: 20 to 70 RH). On the 9th to 14th day after the inoculation, the infection degree was examined according to the following scale and the control value of each compound was calculated by the following calculation equation 2: [table] (Equation 2) Control value = (1 - infection degree of treated zone/infection degree of untreated zone) x 100 (%) [formula] The control values of each compound are shown in Table 9.

[2] = system: Botrytis cinerea; experiment: Antifungal activity test against various pathogenic fungi, hypha extension on PDA plates (Test Example 3); type: cell-based; settings: for inhibition at 1.6 ppm: read-out: Growth Inhibition B.c (1.6)
[3] = system: wheat powdery mildew; experiment: Test of control effect on wheat powdery mildew (Test Example 1); type: in vivo; settings: wettable powder 125 mg/l, 100 liters/10 a, sprinkled on wheat seedlings (Nourin 64) before inoculation, examined 9th to 14th day after inoculation; for pest or weed control at 125 µg/mL: Triticum aestivum
Experimental: Wettable powders were prepared from compounds of the present invention I-1 to I-27 and comparative compounds (a) to (d) , (m-1) and (m-3). The obtained wettable powder was diluted and suspended with water to provide the predetermined concentration (125 mg/l), and was sprinkled onto seedlings of wheat (variety: "Nourin 64") at the first to the second leaf period which were cultivated using square plastic pots (size: 6.4 cm x 6.4 cm) in a rate of 100 liters/10 a (ares). After drying the sprinkled leaves with air, a suspension of wheat powdery mildew spores taken from infected leaves was inoculated by spraying onto the sprinkled leaves. They were supervised in a green house (temperature: 20 to 24°C, relative humidity: 20 to 70 RH). On the 9th to 14th day after the inoculation, the infection degree was examined according to the following scale and the control value of each compound was calculated by the following calculation equation 1. [table] (Equation 1) Control value = (1 - infection degree of treated zone/infection degree of untreated zone) x 100 (%) [formula] The control values of each compound are shown in Table 8.

[4] = system: wheat powdery mildew; experiment: Permeable mobility fungicidal effect test in leaf section of wheat powdery mildew (Test Example 4); type: in vivo
Experimental: In the test example 4, permeable mobility fungicidal effect test was performedon the leaf section of wheat powdery mildew with regard to the compounds I-1 to 27 according to the present invention and the comparative compounds (a) to (d), and (m-1) to (m-3) with the method described later. The compound in the form of a wettable powder obtained by Formulation 2 or the like was diluted and suspended with water to a predetermined concentration (200mg/l), and 0.5 µl of the suspension was applied to a 2 to 3 cm leaf portion from the root of the three leaves of the 4th to 4.5th leaf period wheat (variety: Abukumawase) cultured by using a square plastic pot (size: 6.4 cm x 6.4 cm). After these wheat leaves were subject to still standing in a glass house (temperature: 20 to 24C, relative humidity: 20 to 70 RH) for one day, the spores of wheat powdery mildew were inoculated over the leaves by sprinkling the same with a brush from an infected leaf, a disease was contracted in the same glass house. The length of a non-contracted area generated from the applied portion to the direction of the leaf top was measured, and a relative mobility to the compound (m-2) was calculated with the following calculation […] by using the comparative compound (m-2) as a standard compound. (Equation 4) Relative mobility = (Length of non-contracted area in each chemical section (cm)/Length of non-contracted area of compound (m-2) (cm)) [formula]

[5] = system: Pyrenophora graminea; experiment: Antifungal activity test against various pathogenic fungi, hypha extension on PDA plates (Test Example 3); type: cell-based; settings: read-out: Growth Inhibition P.g (12.5)
[6] = system: Microdochium nivale; experiment: as above; type: cell-based; settings: read-out: Growth Inhibition M.n (3.2)
[7] = system: Venturia inaequalis; experiment: as above; type: cell-based; settings: read-out: Growth Inhibition V.i (3.2)
[8] = system: Leptosphaeria nodorum; experiment: as above; type: cell-based; settings: Parastagonospora nodorum, read-out: Growth Inhibition L.n (0.8)
[9] = system: Pyricularia oryzae; experiment: microbe, parasite or virus in culture; type: cell-based; settings: read-out: Growth Inhibition P.o (12.5)
[10] = system: Rhynchosporium secalis; experiment: Antifungal activity test against various pathogenic fungi, hypha extension on PDA plates (Test Example 3); type: cell-based; settings: read-out: Growth Inhibition R.s (100)
[11] = system: Septoria tritici; experiment: as above; type: cell-based; settings: Zymoseptoria tritici, read-out: Growth Inhibition S.t (100)
[12] = system: Pseudocercosporella herpotrichoides; experiment: as above; type: cell-based; settings: Oculimacula yallundae, read-out: Growth Inhibition P.h (25)
[13] = 1.6 ppm in PDA culture medium, cultured 1 to 7 days
[14] = length of non-contracted area relative to compound (m-2), 0.5 µl of 200 mg/l suspension applied to wheat leaf (Abukumawase), inoculated after one day
[15] = 12.5 ppm in PDA culture medium, cultured 1 to 7 days
[16] = 3.2 ppm in PDA culture medium, cultured 1 to 7 days
[17] = Leptosphaeria nodorum, 0.8 ppm in PDA culture medium, cultured 1 to 7 days
[18] = 100 ppm in PDA culture medium, cultured 1 to 7 days
[19] = Septoria tritici, 100 ppm in PDA culture medium, cultured 1 to 7 days

Compound | pest or weed control at 100 µg/mL [1] [%] | inhibition at 1.6 ppm [2, 13] [%] | pest or weed control at 125 µg/mL [3] [%] | Relative Mobility [4, 14] | also measured
CC(Cc1cccc(C(F)(F)F)c1)CN(C)Cc1ccc(Cl)nc1 (centres unmarked) [(a), 6-chloro-N-methyl-[2-methyl-3-(3-trifluoromethylphenyl)propyl]-3-pyridylmethylamine] | 50 | 20 to 40 | 70 | 1 | 
CC(Cc1cccc(OC(F)(F)F)c1)CN(C)Cc1ccc(Cl)nc1 (centres unmarked) [(b), 6-chloro-N-methyl-[2-methyl-3-(3-trifluoromethoxyphenyl)propyl]-3-pyridylmethylamine] | 60 | 40 to 70 | 80 | 3 | 
CC(Cc1cccc(Cl)c1Cl)CN(C)Cc1ccc(Cl)nc1 (centres unmarked) [(c-1), 6-chloro-N-[3-(2,3-dichlorophenyl)-2-methylpropyl]-N-me thyl-3-pyridylmethylamine] | 0 | 20 to 40 | 40 | 1 | 
CC(Cc1ccccc1Cl)CN(C)Cc1ccc(Cl)nc1 (centres unmarked) [(c-2), 6-chloro-N-[3-(2-chlorophenyl)-2-methylpropyl]-N-methyl-3-pyridylmethylamine, reference compound] | 0 | 20 to 40 | 40 | 1 | inhibition at 12.5 ppm [5, 15]: 20 to 40%; inhibition at 3.2 ppm [6, 16]: 20 to 40%; inhibition at 3.2 ppm [7, 16]: 20 to 40%; inhibition at 0.8 ppm [8, 17]: 40 to 70%; inhibition at 12.5 ppm [9]: 40 to 70%; inhibition at 100 ppm [10, 18]: 20 to 40%
CC(Cc1cccc(Cl)c1)CN(C)Cc1ccc(Cl)nc1 (centres unmarked) [(c-3), 6-chloro-N-[3-(3-chlorophenyl)-2-methylpropyl]-N-methyl-3-pyridylmethylamine] | 0 | 20 to 40 | 50 | 1 | 
CC(Cc1cccc(F)c1)CN(C)Cc1ccc(Cl)nc1 (centres unmarked) [(c-4), 6-chloro-N-[3-(3-fluorophenyl)-2-methylpropyl]-N-methyl-3-pyridylmethylamine, reference compound] | 0 | < 20 | 10 | 1 | inhibition at 12.5 ppm [5, 15]: 20 to 40%; inhibition at 3.2 ppm [6, 16]: 20 to 40%; inhibition at 3.2 ppm [7, 16]: 20 to 40%; inhibition at 0.8 ppm [8, 17]: 40 to 70%; inhibition at 12.5 ppm [9]: 40 to 70%; inhibition at 100 ppm [10, 18]: 20 to 40%
CC(Cc1ccc2c(c1)OCO2)CN(C)Cc1ccc(Cl)nc1 (centres unmarked) [(d), 6-chloro-N-[2-methyl-3-(3,4-methylenedioxyphenyl)propyl]-N-methyl-3-pyridylmethylamine] | 0 | < 20 | 10 | 1 | 
Cc1ccc(CC(C)CN(C)Cc2ccc(Cl)nc2)cc1C (centres unmarked) [(m-1), 6-chloro-N-[3-(3,4-dimethylphenyl)-2-methylpropyl]-N-me thyl-3-pyridylmethylamine] | 10 | 20 to 40 | 10 | 1 | 
CC(Cc1ccc(C(C)(C)C)cc1)CN(C)Cc1ccc(Cl)nc1 (centres unmarked) [(m-2), N-[3-(4-t-butylphenyl)-2-methylpropyl]-6-chloro-N-methy 1-3-pyridylmethylamine] |  |  |  | 1 | 
COc1cccc(CC(C)CN(C)Cc2ccc(Cl)nc2)c1 (centres unmarked) [(m-3), 6-chloro-N-[3-(3-methoxyphenyl)-2-methylpropyl]-N-methy 1-3-pyridylmethylamine] |  |  |  | 1 | Control Value [1]: 0%; Growth Inhibition B.c (1.6) [2, 13]: 1 (Hypha extension inhibition rate of less than 20%); Control Value [3]: 0%
CC(Cc1ccc(C(F)(F)F)c(F)c1)CN(C)Cc1ccc(Cl)nc1 (centres unmarked) [Compound I-9, 6-chloro-N-[3-(3-fluoro-4-trifluoromethylphenyl)-2-methylpropyl]-N-methyl-3-pyridylmethylamine] | 100 | 70 to 90 | 100 | 3 | inhibition at 100 ppm [11, 19]: 70 to 90%
CC(Cc1ccc(C(F)(F)F)c(F)c1F)CN(C)Cc1ccc(Cl)nc1 (centres unmarked) [Compound I-10] |  |  |  |  | inhibition at 100 ppm [11]: 70 to 90%; inhibition at 25 ppm [12]: > 90%; inhibition at 12.5 ppm [5]: 70 to 90%; inhibition at 3.2 ppm [6]: 70 to 90%; inhibition at 3.2 ppm [7]: 70 to 90%; inhibition at 0.8 ppm [8]: 70 to 90%; inhibition at 12.5 ppm [9]: 70 to 90%; Control Value [1]: 100%; inhibition at 1.6 ppm [2]: > 90%; Control Value [3]: 100%; Relative Mobility ([4]; 24 h, 200 ug/mL): 3; inhibition at 100 ppm [10]: 70 to 90%
CC(Cc1ccc(OC(F)(F)F)cc1)CN(C)Cc1ccc(Cl)nc1 (centres unmarked) [Compound I-12, 6-chloro-N-methyl-N-[3-(4-trifluoromethoxyphenyl)-2-methylpropyl]-3-pyridylmethylamine] | 100 | 70 to 90 | 100 | 10 | inhibition at 100 ppm [11, 19]: 70 to 90%; inhibition at 25 ppm ([12]; Pseudocercosporella herpotrichoides, 25 ppm in PDA culture medium, cultured 1 to 7 days): > 90%; inhibition at 12.5 ppm [5, 15]: 70 to 90%; inhibition at 3.2 ppm [6, 16]: > 90%; inhibition at 3.2 ppm [7, 16]: 70 to 90%; inhibition at 0.8 ppm [8, 17]: > 90%; inhibition at 12.5 ppm [9]: 70 to 90%; inhibition at 100 ppm [10, 18]: > 90%
CC(Cc1ccc(F)c(OC(F)(F)F)c1)CN(C)Cc1ccc(Cl)nc1 (centres unmarked) [Compound I-16] |  |  |  |  | inhibition at 0.8 ppm [8]: > 90%; Control Value [1]: 100%; inhibition at 1.6 ppm [2]: 70 to 90%; Control Value [3]: 100%; Relative Mobility ([4]; 24 h, 200 ug/mL): 9
